In the supplement of paper PMC10307832:

Tests used:
Experiment in all cases: relative viability (nuclei count vs DMSO), 5 days (fraction); higher = more cells survive
A549 = test system: A549
Outline: (§1)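 Relative viability divides the nuclei count in treated wells by that in vehicle wells. Lung cancer cell lines were seeded in 1536-well plates, dosed by pin tool the next day, and fixed and stained after 5 days in one step with final 0.05% Triton X-100, 1% formaldehyde and 1 ug/ml Hoechst. Dosing was a single drug or a fixed anchor-drug dose plus five library-drug doses (not always all listed) in √10 steps, and values are medians of duplicate plates imaged at 4×.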

Calu-6 = test system: Calu-6
Outline: as §1

EBC-1 = test system: EBC-1
Outline: as §1

IA-LM = test system: IA-LM
Outline: as §1

NCI-H1299 = test system: NCI-H1299
Outline: as §1

NCI-H1563 = test system: NCI-H1563
Outline: as §1

NCI-H1623 = test system: NCI-H1623
Outline: as §1

NCI-H1703 = test system: NCI-H1703
Outline: as §1

NCI-H2342 = test system: NCI-H2342
Outline: as §1

SW 900 = test system: SW 900
Outline: as §1

NCI-H522 = test system: NCI-H522
Outline: as §1

Work on `O=C(O)CCCCC(CCSCc1ccccc1)SCc1ccccc1` (stereo not drawn) [CPI-613] + COc1cc2c(Oc3ccc(NC(=O)C4(C(=O)Nc5ccc(F)cc5)CC4)cc3F)ccnc2cc1OCCCN1CCOCC1 [Foretinib] (partner 0.25 µM) yielded a relative viability (A549; first compound 5 µM) of 0.942, a relative viability (A549; first compound 15.81 µM) of 0.829 and a relative viability (A549; first compound 50 µM) of 0.848. The relative viability (A549; first compound 158.11 µM) was 0.944, the relative viability (A549; first compound 500 µM) was 0.641 and the relative viability (Calu-6; first compound 5 µM) was 0.872. For the same compound, the relative viability (Calu-6; first compound 15.81 µM) was 0.848, the relative viability (Calu-6; first compound 50 µM) was 0.865 and the relative viability (Calu-6; first compound 158.11 µM) was 0.769. For the same compound, the relative viability (Calu-6; first compound 500 µM) was 0.675, the relative viability (EBC-1; first compound 5 µM) was 0.0958 and the relative viability (EBC-1; first compound 15.81 µM) was 0.0971. The relative viability (EBC-1; first compound 50 µM) was 0.0899, the relative viability (EBC-1; first compound 158.11 µM) was 0.0957 and the relative viability (EBC-1; first compound 500 µM) was 0.0975. It also gave a relative viability (IA-LM; first compound 5 µM) of 1.12, a relative viability (IA-LM; first compound 15.81 µM) of 1.16 and a relative viability (IA-LM; first compound 50 µM) of 1.13. It also gave a relative viability (IA-LM; first compound 158.11 µM) of 0.933, a relative viability (IA-LM; first compound 500 µM) of 0.872 and a relative viability (NCI-H1299; first compound 5 µM) of 1.03. It also gave a relative viability (NCI-H1299; first compound 15.81 µM) of 1.04, a relative viability (NCI-H1299; first compound 50 µM) of 1.1 and a relative viability (NCI-H1299; first compound 158.11 µM) of 1.08. It also gave a relative viability (NCI-H1299; first compound 500 µM) of 1.14, a relative viability (NCI-H1563; first compound 5 µM) of 0.957 and a relative viability (NCI-H1563; first compound 15.81 µM) of 0.896. It also gave a relative viability (NCI-H1563; first compound 50 µM) of 0.892, a relative viability (NCI-H1563; first compound 158.11 µM) of 0.665 and a relative viability (NCI-H1563; first compound 500 µM) of 0.231. It also gave a relative viability (NCI-H1623; first compound 5 µM) of 0.845, a relative viability (NCI-H1623; first compound 15.81 µM) of 0.921 and a relative viability (NCI-H1623; first compound 50 µM) of 0.972. It also gave a relative viability (NCI-H1623; first compound 158.11 µM) of 0.59, a relative viability (NCI-H1623; first compound 500 µM) of 0.831 and a relative viability (NCI-H1703; first compound 5 µM) of 0.442. The relative viability (NCI-H1703; first compound 15.81 µM) was 0.353, the relative viability (NCI-H1703; first compound 158.11 µM) was 0.331 and the relative viability (NCI-H1703; first compound 500 µM) was 0.33. The relative viability (NCI-H2342; first compound 5 µM) was 1.04, the relative viability (NCI-H2342; first compound 15.81 µM) was 0.978 and the relative viability (NCI-H2342; first compound 50 µM) was 1.04. It also gave a relative viability (NCI-H2342; first compound 158.11 µM) of 1.12, a relative viability (NCI-H2342; first compound 500 µM) of 1.05 and a relative viability (SW 900; first compound 5 µM) of 0.743. For the same compound, the relative viability (SW 900; first compound 15.81 µM) was 0.776, the relative viability (SW 900; first compound 50 µM) was 0.792 and the relative viability (SW 900; first compound 158.11 µM) was 0.418. For the same compound, the relative viability (SW 900; first compound 500 µM) was 0.0443.

`O=c1[nH]c2ccccc2n1C1CCN(CCCC(c2ccc(F)cc2)c2ccc(F)cc2)CC1` [Pimozide] + N=C(N)NC(=N)NCCc1ccccc1 [Phenformin] (partner 250 µM) was tested, and the relative viability (A549; first compound 0.08 µM) was 0.154, the relative viability (A549; first compound 0.253 µM) was 0.171 and the relative viability (A549; first compound 0.8 µM) was 0.152. It also gave a relative viability (A549; first compound 2.53 µM) of 0.156, a relative viability (A549; first compound 8 µM) of 0.173 and a relative viability (NCI-H1563; first compound 0.08 µM) of 0.721. The relative viability (NCI-H1563; first compound 0.253 µM) was 0.771, the relative viability (NCI-H1563; first compound 0.8 µM) was 0.668 and the relative viability (NCI-H1563; first compound 2.53 µM) was 0.663. It also gave a relative viability (NCI-H1563; first compound 8 µM) of 0.64, a relative viability (NCI-H1623; first compound 0.253 µM) of 0.575 and a relative viability (NCI-H1623; first compound 0.8 µM) of 0.57. The relative viability (NCI-H1623; first compound 2.53 µM) was 0.617, the relative viability (NCI-H1623; first compound 8 µM) was 0.629 and the relative viability (NCI-H2342; first compound 0.08 µM) was 0.655. It also gave a relative viability (NCI-H2342; first compound 0.253 µM) of 0.543, a relative viability (NCI-H2342; first compound 0.8 µM) of 0.555 and a relative viability (NCI-H2342; first compound 2.53 µM) of 0.536. It also gave a relative viability (NCI-H2342; first compound 8 µM) of 0.639, a relative viability (NCI-H522; first compound 0.08 µM) of 0.569 and a relative viability (NCI-H522; first compound 0.253 µM) of 0.655. For the same compound, the relative viability (NCI-H522; first compound 0.8 µM) was 0.628, the relative viability (NCI-H522; first compound 2.53 µM) was 0.804 and the relative viability (NCI-H522; first compound 8 µM) was 0.671. For the same compound, the relative viability (SW 900; first compound 0.08 µM) was 0.574, the relative viability (SW 900; first compound 0.253 µM) was 0.685 and the relative viability (SW 900; first compound 0.8 µM) was 0.375. The relative viability (SW 900; first compound 2.53 µM) was 0.552 and the relative viability (SW 900; first compound 8 µM) was 0.516.

Compound `O=C(O)CCCCC(CCSCc1ccccc1)SCc1ccccc1` (stereo not drawn) [CPI-613] + N=C(N)NC(=N)NCCc1ccccc1 [Phenformin] (partner 250 µM) has a relative viability (A549; first compound 5 µM) of 0.162, a relative viability (A549; first compound 15.81 µM) of 0.172 and a relative viability (A549; first compound 50 µM) of 0.178. For the same compound, the relative viability (A549; first compound 158.11 µM) was 0.131, the relative viability (A549; first compound 500 µM) was 0.107 and the relative viability (NCI-H1563; first compound 5 µM) was 0.638. It also gave a relative viability (NCI-H1563; first compound 15.81 µM) of 0.588, a relative viability (NCI-H1563; first compound 50 µM) of 0.637 and a relative viability (NCI-H1563; first compound 158.11 µM) of 0.503. It also gave a relative viability (NCI-H1563; first compound 500 µM) of 0.27, a relative viability (NCI-H1623; first compound 5 µM) of 0.63 and a relative viability (NCI-H1623; first compound 15.81 µM) of 0.565. The relative viability (NCI-H1623; first compound 50 µM) was 0.573, the relative viability (NCI-H1623; first compound 158.11 µM) was 0.488 and the relative viability (NCI-H1623; first compound 500 µM) was 0.551. The relative viability (NCI-H2342; first compound 5 µM) was 0.636, the relative viability (NCI-H2342; first compound 15.81 µM) was 0.589 and the relative viability (NCI-H2342; first compound 50 µM) was 0.586. It also gave a relative viability (NCI-H2342; first compound 158.11 µM) of 0.487, a relative viability (NCI-H2342; first compound 500 µM) of 0.638 and a relative viability (NCI-H522; first compound 5 µM) of 0.681. The relative viability (NCI-H522; first compound 15.81 µM) was 0.672, the relative viability (NCI-H522; first compound 50 µM) was 0.625 and the relative viability (NCI-H522; first compound 158.11 µM) was 0.588. It also gave a relative viability (NCI-H522; first compound 500 µM) of 0.399, a relative viability (SW 900; first compound 5 µM) of 0.579 and a relative viability (SW 900; first compound 15.81 µM) of 0.542. It also gave a relative viability (SW 900; first compound 50 µM) of 0.4, a relative viability (SW 900; first compound 158.11 µM) of 0.305 and a relative viability (SW 900; first compound 500 µM) of 0.03.
